Experimental data published in patent publication US20150004137A1, “NOVEL FORMS OF PLANT DEFENSINS” (Balmoral Australia Pty Ltd, priority 2011, published 2015).
“Also recorded” adds a separate entry of the source. Where no end group is shown, it is not given here.

What was measured:
U937 and PC3 cells = test: Subcellular localisation of BODIPY-NaD1 by CLSM; type: cell-based, human; details: PI present, 12 minutes
Protocol: FIG. 2B is a series of micrographs examining the subcellular localisation of BODIPY-NaD1 in U937 and PC3 cells. U937 cells immobilised onto 10% poly-L-lysine coverslips or PC3 cells cultured as adherent monolayers on coverslips, were treated with […] BODIPY-NaD1 in the presence of 1 μg/ml PI for 12 minutes and cells imaged by CLSM. Scale bars represent 10 μm.
Live imaging was performed on a Zeiss LSM-510 confocal microscope using a 40× oil immersion objective in a 37° C./5% CO2 atmosphere. Adherent cells were cultured on coverslips prior to imaging while non-adherent cells were immobilized onto 10% poly-L-lysine-coated coverslips. All cell types were prepared for imaging in RPMI medium containing 0.1% BSA and […] PI. […] In certain experiments, cells were either, stained with PKH67 (Sigma-Aldrich) or transfected with plasmid construct for free GFP or GFP-PH(PLCδ) using Lipofectamine™ 2000 Reagent (Invitrogen) as per manufacturer's instructions prior to imaging. Transmission electron microscopy (TEM) imaging was performed according to a previously described procedure (Adda et al. 2009).

U937 cells [1] = test: BODIPY-NaD1 binding to viable and permeabilised U937 cells (flow cytometry, 7AAD); type: cell-based, human; details: 10 μM, 37° C., 30 min
Source text: The percentage of cells in each population (boxed) is indicated.

[2] = Cross-linking (BS3) study of lipid-mediated oligomerisation with PIP2; details: 0.5 mM PIP2, 30 min room temperature, SDS-PAGE, immunoblot
Protocol: (§1) Molecular weight markers are indicated.
(§2) Protein samples at 1 mg ml^−1 (2.5 μl) were incubated with 0.5 mM PIP2 or PA (2.5 μl) at room temperature for 30 min. […] Samples were reduced and denatured, and subjected to SDS-PAGE.

[3] = as described in PCT/AU2011/000760 and U.S. Ser. No. 13/166,960; cited from earlier work
[4] = Cross-linking (BS3) study of lipid-mediated oligomerisation with PA; details: 0.5 mM PA, 30 min room temperature, SDS-PAGE, immunoblot
Protocol: as §1, §2

tumour cells = details: as disclosed in PCT/AU2011/000760 and U.S. Ser. No. 13/166,960; cited from earlier work
U937 cells [5] = test: PI uptake membrane permeabilisation assay (flow cytometry); type: cell-based, human; details: 30 minutes at 37° C.
Protocol: FIG. 5B is a graphical representation showing the effect of rNaD1, rNaD1(D2L4A), or rNaD1(D2L5) on the permeabilisation of U937 cells. Cells were incubated with 10 μM of each defensin for 30 minutes at 37° C. upon which 1 μg/ml PI propidium iodide (PI) was added. The number of cells that stained positively for PI was determined by flow cytometry.
Cells were incubated with 10 μM of each defensin for 30 minutes at 37° C. upon which 1 μg/ml PI propidium iodide (PI) was added. The number of cells that stained positively for PI was determined by flow cytometry.
Cells were incubated with 5 μM of each defensin for 30 minutes at 37° C. upon which […] PI propidium iodide (PI) was added. The number of cells that stained positively for PI was determined by flow cytometry.
Unless otherwise stated, cells are re-suspended at a cell concentration of 4×10^5 cells/mL in complete culture RPMI-1640 medium supplemented with 10% FBS, 100 μ/mL penicillin and 100 μg/mL streptomycin, and are added to either a V-bottom 96-well plate or microfuge tubes. Cells are kept at 37° C., unless otherwise stated, during protein addition (5 μL) at various concentrations or the set concentration of 10 μM. Typically, cells are mixed with the heterogeneous defensin of interest and are incubated at 37° C. for 30 min. In certain experiments, cells are also incubated at either 4° C. or 37° C. for 2-60 min prior to flow cytometry analysis. Cells are added to an equal volume of complete culture medium containing 2 μg/mL propidium iodide (PI, Annexin V-FITC Apoptosis Detection Kit, Invitrogen) and are analysed immediately by flow cytometry using a FACSCanto cell sorter (Becton Dickson, Fanklin Lakes, N.J.) and Cell Quest Pro Software (Becton Dickson). Typically, 5000-10000 events per sample are collected and the resultant data is analysed using FlowJo software (Tree Star, Ashland, Oreg.). Cells are gated appropriately based on forward scatter (FSC) and side scatter (SSC), with the viable cells is determined by their ability to exclude PI. […]

[6] = Lipid binding assay on Echelon membrane lipid strips; details: anti-NaD1 antibody detection, densitometry
Source text: FIG. 5C is an immunoblot depicting the lipid binding profile of rNaD1, rNaD1(D2L4A), or rNaD1(D2L5). Echelon™ membrane lipid strips were probed with the defensins and binding detected with a rabbit anti-NaD1 antibody followed by a horseradish peroxidase (HRP) conjugated donkey anti-rabbit IgG antibody.
Data is the mean of three replicate experiments±SEM.
Echelon™ membrane lipid strips were probed with the defensins and binding was detected with a rabbit anti-NaD1 antibody followed by a horseradish peroxidase (HRP) conjugated donkey anti-rabbit IgG antibody.
Membrane Lipid Strips™, PIP Strips™ and Sphingo Strips™ (Echelon Biosciences, Salt Lake City, Utah) were incubated with PBS/3% BSA for 1-2 h at RT to block non-specific binding. […] Membrane-bound protein was detected by probing the membrane strips with a rabbit anti-NaD1 polyclonal antibody (diluted 1:2000 with PBS/1% BSA) for 1 h at 4° C., followed by a HRP-conjugated donkey anti-rabbit IgG antibody (diluted 1:2000 with PBS/1% BSA) for 1 h at 4° C. After each antibody incubation, the membrane strips were washed extensively for 60 min at RT with PBS/0.1% Tween-20. Chemiluminescence was detected using the enhanced chemiluminescence (ECL) western blotting reagent (GE Healthcare BioSciences, NSW Australia) and exposed to Hyperfilm (GE Healthcare BioSciences, NSW, Australia) and developed using an Xomat (All-Pro-Imaging). […]

[7] = biological target: the molecule itself; test: BS3 cross-linking in solution, SDS-PAGE and immunoblot; NaD2 was also efficiently multimerised by PA and not by PIP2
Protocol: FIG. 4B is an immunoblot depicting the lipid-mediated oligomerisation of the class II defensins NaD1 and TPP3, and the class I defensin NaD2. Each of the defensins at 250 ng/ml were incubated with 0.5 mM PIP2 or PA at room temperature for 30 minutes and samples then treated with the cross-linker bis[sulfosuccinimidyl] suberate (BS³) at 12.5 mM for a further 30 minutes, Samples were reduced and denatured, separated by SDS-PAGE, and examined by immunoblotting with an anti-NaD1 (NaD1 and TPP3) or anti-NaD2 (NaD2) antibody. Molecular weight markers are indicated.

With “BODIPY-NaD1: BODIPY-labelled NaD1 (RECKTESNTFPGICITKPPCRKACISEKFTDGHCSKILRRCLCTKPC; cysteine pairing not given here; also: BODIPY label (position not given here); UniProt Q8GTM0 26-72, looked up)” the “subcellular localisation on permeabilised tumor cells” value (U937 and PC3 cells) was “accumulation of BODIPY-NaD1 at the membrane bleb(s), cytoplasm, nucleolus and possibly at certain cytoplasmic organelles”, the “binding to U937 cells” value (U937 cells [1]; 7AAD, flow cytometry) was “bound to both viable (7AAD negative) and permeabilised (7AAD positive) U937 cells” and the “membrane permeabilisation of U937 (7AAD)” value (U937 cells [1]; compared with unlabelled NaD1) was “comparable level to unlabelled NaD1”.

For “RTCESQSHRFKGPCARDSNCATVCLTEGFSGGDCRGFRRRCFCTRPC (listed as Nicotiana alata) [NaD2]”, the “multimerisation (oligomer formation) mediated by PIP2” value [2] is listed as “not PIP2”, the “lipid binding preference / ligand” value [3] is listed as “preferentially binds PA over PIP2; also recorded: does not bind PIP2” and the “multimerisation (oligomer formation) mediated by PA” value [4] is listed as “forms oligomers with PA; also recorded: efficiently multimerised by PA”. For the same molecule, the tumour cell killing (tumour cells) was “does not kill tumour cells”.

In the case of “R40E: NaD1 mutant, loop 5 residue R40 replaced with glutamic acid (RECKTESNTFPGICITKPPCRKACISEKFTDGHCSKILRECLCTKPC; UniProt Q8GTM0 26-72, looked up, variant R40E)”, the “permeabilisation of U937 cells (cells stained positively for PI)” value (“permeabilisation of U937 cells” for short) (U937 cells [5]; 5 μM of each defensin) is reported as “greatly reduced ability to permeabilise U937 cells”.

With “rNaD1: NaD1 purified from P. pastoris (recombinant NaD1) (RECKTESNTFPGICITKPPCRKACISEKFTDGHCSKILRRCLCTKPC; recombinant, Pichia pastoris; UniProt Q8GTM0 26-72, looked up)” the “lipid binding profile (lipid bound most strongly / preferred)” value [6] was “bound most strongly to PIP2” and the “permeabilisation of U937 cells” value (U937 cells [5]; 10 μM of each defensin) was “permeabilised U937 cells”.

For “K36E: NaD1 mutant, loop 5 residue K36 replaced with glutamic acid (RECKTESNTFPGICITKPPCRKACISEKFTDGHCSEILRRCLCTKPC; UniProt Q8GTM0 26-72, looked up, variant K36E)”, the “permeabilisation of U937 cells” value (U937 cells [5]; 5 μM of each defensin) was “greatly reduced ability to permeabilise U937 cells”.

RTCESQSHRFKGPCARDSNCATVCLTEGFSGGDCRGFRRRCFCTRPC (other) [NaD2 (Class I plant defensin)]: binds [7].
